Measured values: patent US10906933B2, “Coupled peptide chain for dissolving poorly soluble polypeptides and application thereof for separation and purification in liquid chromatography” (Spec-Chem Industry Inc., priority 2015, dated 2021)

Assay: Dissolving capacity evaluation of peptide chains at 2 mg/mL in solvents
Format: physicochemical
Settings: for Dissolving capacity, ACN:H2O (1:3): 2 mg/mL in ACN:H2O (1:3) solution in HPLC; for Dissolving capacity, DMF: 2 mg/mL in DMF solution; for Dissolving capacity, DMSO: 2 mg/mL in DMSO solution
Experimental: This test evaluated the dissolving capacity of each group of peptide chain at 2 mg/mL in a DMF solution, a DMSO solution, an ACN:H2O (1:3) solution in HPLC, and an LiOH saturated solution, respectively. The poorly soluble polypeptide chain-linker arm-hydrophilic polypeptide chain in embodiments 1 and 2 were taken as Groups 1 and 2, respectively, and a separate poorly soluble polypeptide chain […] (SEQ ID NO: 1) was taken as a control group, as shown in Table 3: […]

[1] = listed as ILVLLIII (SEQ ID NO: 1) 4-HMBA-DDDDDEEKEEEE (SEQ ID NO: 2)

Row | Sequence | Dissolving capacity, ACN:H2O (1:3) | Dissolving capacity, DMF | Dissolving capacity, DMSO | Dissolving capacity, LiOH saturated solution (2 mg/mL in LiOH saturated solution, listed as second group) | Dissolving capacity, ACN:H2O (1:3) [1] | Dissolving capacity, DMF [1] | Dissolving capacity, DMSO [1]
1 | ILVLLIII (SEQ ID NO: 1) (Poorly soluble polypeptide) [Group 3, the target peptide, reference compound] | very cloudy with solids precipitating | very cloudy with solids precipitating | very cloudy with solids precipitating | – | – | – | –
2 | ILVLLIII (SEQ ID NO: 1)-HPA-RRRRREDKKKKK (SEQ ID NO: 3) [Group 2] | completely dissolved | solids still precipitated | solids still precipitated | obviously not better than that of the first group | – | – | –
3 | ILVLLIII (SEQ ID NO: 1)-HMBA-DDDDDEEKEEEE (SEQ ID NO: 2) [Group 1] | – | – | – | – | clear with no solids precipitating | clear with no solids precipitating | clear with no solids precipitating
